Common to all, as to assay type: cell-based
Test [1] addresses T1, human prostanoid IP receptor (Homo sapiens, UniProt P43119).
T1 construct: expressed in transfected cells
The experiment in a line: FLIPR Ca2+ signaling PG antagonist assay, IP stable cell line. Particulars: HEK-293 EBNA cells, human recombinant IP, no exogenous G-protein; standard agonist Cicaprost. Put shortly: (§1)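 HEK-293 EBNA stable lines; EP2 co-expressed with chimeric Gqs, EP1/IP/TP with no exogenous G protein. Fluo-4AM-loaded cells pretreated 4.5 min at 37 °C with compound (0.1–30 μM; TP 0.067–1 μM), then standard agonist (PGE2, cicaprost, U-46619) 10^−11–10^−5 M (TP 10^−12–10^−6 M); peak fluorescence read 3.5 min, nonlinear regression.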

Test [2] deals with T2, human prostanoid EP2 receptor (Homo sapiens, UniProt P43116).
T2 construct: expressed in transfected cells
T2 sequence (P43116 whole entry): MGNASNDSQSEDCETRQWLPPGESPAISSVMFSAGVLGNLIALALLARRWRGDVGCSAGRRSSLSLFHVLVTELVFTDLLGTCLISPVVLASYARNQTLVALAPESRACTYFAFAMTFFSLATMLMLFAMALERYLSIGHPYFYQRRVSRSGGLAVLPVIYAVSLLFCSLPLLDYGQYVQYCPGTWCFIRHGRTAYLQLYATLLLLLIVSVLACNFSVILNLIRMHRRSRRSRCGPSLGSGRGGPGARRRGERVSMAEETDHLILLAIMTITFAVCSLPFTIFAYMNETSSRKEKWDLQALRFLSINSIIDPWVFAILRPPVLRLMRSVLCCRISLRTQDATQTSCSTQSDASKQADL
The experiment in a line: FLIPR Ca2+ signaling PG antagonist assay, EP2 stable cell line. Particulars: HEK-293 EBNA cells, human recombinant EP2 with chimeric Gqs; standard agonist PGE2. Put shortly:
as §1

Test [3] has as its target T3, human prostanoid EP1 receptor (Homo sapiens, UniProt P34995).
T3 construct: expressed in transfected cells
T3 sequence (P34995 1-402): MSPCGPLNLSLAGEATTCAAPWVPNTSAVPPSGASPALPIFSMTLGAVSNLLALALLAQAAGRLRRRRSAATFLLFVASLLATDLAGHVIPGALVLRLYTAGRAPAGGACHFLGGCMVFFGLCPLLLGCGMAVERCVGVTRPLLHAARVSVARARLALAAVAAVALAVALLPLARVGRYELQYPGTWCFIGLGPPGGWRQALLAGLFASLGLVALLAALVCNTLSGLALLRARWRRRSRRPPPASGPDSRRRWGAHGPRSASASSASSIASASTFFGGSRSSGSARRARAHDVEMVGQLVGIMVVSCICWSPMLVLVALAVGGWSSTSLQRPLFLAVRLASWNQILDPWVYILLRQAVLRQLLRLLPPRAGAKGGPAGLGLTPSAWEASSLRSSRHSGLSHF
Nature of the test: FLIPR Ca2+ signaling PG antagonist assay, EP1 stable cell line. Conditions: HEK-293 EBNA cells, human recombinant EP1, no exogenous G-protein; standard agonist PGE2. Put shortly:
(§2)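 Stable HEK-293 EBNA lines (DP1 with chimeric Gqs, EP3 with Gqi, EP1 and FP without exogenous G protein) were Fluo-4AM-loaded and pretreated 4.5 min at 37 °C with compound (0.1–30 μM). Agonist (BW 245C for DP1, PGE2 for EP1/EP3, 17-phenyl-PGF2α for FP) was then added at 10^−11–10^−5 M. Peak Ca2+ fluorescence was taken relative to agonist at 10^−6 M.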

Test [4] concerns the target T4, human prostanoid EP4 receptor (Homo sapiens, UniProt P35408).
T4 construct: expressed in transfected cells
The experiment in a line: FLIPR Ca2+ signaling PG antagonist assay, EP4 stable cell line. Particulars: HEK-293 EBNA cells, human recombinant EP4 with chimeric Gqs; standard agonist PGE2. The essentials:
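Antagonism at human EP4 was assessed as a Ca^2+ signal in stable HEK-293 EBNA transfectants carrying chimeric Gqs. Dye-loaded cells in HBSS-HEPES at 37° C received test compound, then a 7-point 10-fold PGE2 series. Fluorescence was excited at 470-495 nm and read at 515-575 nm for 3.5 minutes, with each condition run in triplicate and buffer used as the negative control.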

Test [5] deals with T5, human prostanoid EP3 receptor (Homo sapiens, UniProt P43115).
T5 construct: expressed in transfected cells
T5 sequence (P43115 1-390): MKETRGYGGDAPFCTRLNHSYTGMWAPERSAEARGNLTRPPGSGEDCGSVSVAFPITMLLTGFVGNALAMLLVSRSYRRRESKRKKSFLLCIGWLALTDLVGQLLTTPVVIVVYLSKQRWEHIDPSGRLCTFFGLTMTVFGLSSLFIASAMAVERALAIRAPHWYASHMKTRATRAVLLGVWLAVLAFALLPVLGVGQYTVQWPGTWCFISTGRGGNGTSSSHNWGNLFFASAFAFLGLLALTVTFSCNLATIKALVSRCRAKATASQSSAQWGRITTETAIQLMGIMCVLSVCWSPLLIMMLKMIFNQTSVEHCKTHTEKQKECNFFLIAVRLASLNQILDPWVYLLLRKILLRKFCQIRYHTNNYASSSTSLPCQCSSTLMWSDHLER
Nature of the test: FLIPR Ca2+ signaling PG antagonist assay, EP3 stable cell line. Conditions: HEK-293 EBNA cells, human recombinant EP3 with chimeric Gqi; standard agonist PGE2. Put shortly:
as §2

T4 sequence (P35408 whole entry): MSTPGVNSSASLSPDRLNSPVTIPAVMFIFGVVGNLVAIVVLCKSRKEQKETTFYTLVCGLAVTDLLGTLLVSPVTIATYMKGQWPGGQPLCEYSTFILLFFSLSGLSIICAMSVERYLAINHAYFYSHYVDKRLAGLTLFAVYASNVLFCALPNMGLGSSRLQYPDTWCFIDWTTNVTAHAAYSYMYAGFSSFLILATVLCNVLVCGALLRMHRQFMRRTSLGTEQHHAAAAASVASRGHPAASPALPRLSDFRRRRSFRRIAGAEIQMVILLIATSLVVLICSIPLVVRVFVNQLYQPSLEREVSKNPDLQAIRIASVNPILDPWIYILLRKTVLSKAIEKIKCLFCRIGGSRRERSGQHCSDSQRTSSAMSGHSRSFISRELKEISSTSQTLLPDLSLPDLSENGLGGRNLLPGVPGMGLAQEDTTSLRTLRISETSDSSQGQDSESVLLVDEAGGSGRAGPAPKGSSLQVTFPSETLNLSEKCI
T1 sequence (P43119 whole entry): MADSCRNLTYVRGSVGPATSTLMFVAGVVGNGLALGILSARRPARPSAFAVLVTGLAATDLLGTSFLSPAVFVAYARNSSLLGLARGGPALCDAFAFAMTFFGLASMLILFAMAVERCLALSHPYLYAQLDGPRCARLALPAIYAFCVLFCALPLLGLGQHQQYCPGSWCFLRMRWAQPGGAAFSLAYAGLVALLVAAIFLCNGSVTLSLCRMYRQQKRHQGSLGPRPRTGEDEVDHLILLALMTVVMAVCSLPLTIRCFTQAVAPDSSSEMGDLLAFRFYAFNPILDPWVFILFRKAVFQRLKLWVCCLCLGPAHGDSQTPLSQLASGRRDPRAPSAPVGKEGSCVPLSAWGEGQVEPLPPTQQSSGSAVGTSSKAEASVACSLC

A word on the Kb: it is the affinity of an antagonist, worked out from how it opposes an agonist. On to `CC(C)COc1c(F)cc(Cl)cc1Cn1ncc2cc(C(=O)O)ccc21` [Example 47, 1-(5-Chloro-3-Fluoro-2-Isobutoxy-Benzyl)-1H-Indazole-5-Carboxylic Acid], for which the antagonist dissociation constant (Kb) in test [1] is 4800 nM; in test [2], not below 10000 nM; in test [3] it was 2000 nM; in test [4], not below 10000 nM; in test [5], not below 10000 nM.

As for `CC(C)COc1ccc(S(C)(=O)=O)cc1Cn1ncc2cc(C(=O)O)ccc21` [Example 48, 1-(2-Isobutoxy-5-Methanesulfonyl-Benzyl)-1H-Indazole-5-Carboxylic Acid], the Kb is not below 10000 nM in test [1]; not below 10000 nM in test [2]; 260 nM in test [3]; not below 10000 nM in test [4]; not below 10000 nM in test [5].

Regarding `CC(C)COc1cc(Cl)c(Cl)cc1Cn1ncc2cc(C(=O)O)ccc21` [Example 49, 1-(4,5-Dichloro-2-Isobutoxy-Benzyl)-1H-Indazole-5-Carboxylic Acid], the Kb in test [1] was 3200 nM; in test [2], not below 10000 nM; in test [3], 540 nM; in test [4] it was 50 nM; in test [5], not below 10000 nM.

With `Cc1ccc(OCC(C)C)c(Cn2ncc3cc(C(=O)O)ccc32)n1` [Example 50, 1-(3-Isobutoxy-6-Methyl-Pyridin-2-ylmethyl)-1H-Indazole-5-Carboxylic Acid], the Kb in test [1] was not below 10000 nM; in test [2], not below 10000 nM; in test [3] it was 90 nM; in test [4], 1800 nM; in test [5], 7100 nM.

As for `CCC(CC)Oc1ccc(Br)cc1Cn1ncc2cc(C(=O)O)ccc21` [Example 51, 1-[5-Bromo-2-(1-Ethyl-Propoxy)-Benzyl]-1H-Indazole-5-Carboxylic Acid], the antagonist dissociation constant (Kb) was 1100 nM in test [1]; not below 10000 nM in test [2]; 70 nM in test [3]; 270 nM in test [4]; 2600 nM in test [5].

As for `CC(C)(C)COc1ccc(Br)cc1Cn1ncc2cc(C(=O)O)ccc21` [Example 52, 1-[5-Bromo-2-(2,2-Dimethyl-Propoxy)-Benzyl]-1H-Indazole-5-Carboxylic Acid], the antagonist dissociation constant (Kb) in test [1] was not below 10000 nM; in test [2], 3800 nM; in test [3], 24 nM; in test [4] it was 10 nM; in test [5], 2100 nM.

For `CC(C)(O)COc1ccc(Br)cc1Cn1ncc2cc(C(=O)O)ccc21` [Example 53, 1-[5-Bromo-2-(2-Hydroxy-2-Methyl-Propoxy)-Benzyl]-1H-Indazole-5-Carboxylic Acid], the Kb in test [1] is not below 10000 nM; in test [2], not below 10000 nM; in test [3] it was 1500 nM; in test [4], not below 10000 nM; in test [5] it was not below 10000 nM.

With `CC(C)COc1ccc(O)cc1Cn1ncc2cc(C(=O)O)ccc21` [Example 54], the Kb was not below 10000 nM in test [1]; not below 10000 nM in test [2]; 1300 nM in test [3]; 2700 nM in test [4]; not below 10000 nM in test [5].

Regarding `CC(C)COc1ccc(OCC(F)F)cc1Cn1ncc2cc(C(=O)O)ccc21` [Example 55, 1-[5-(2,2-Difluoro-Ethoxy)-2-Isobutoxy-Benzyl]-1H-Indazole-5-Carboxylic Acid], the Kb in test [1] was not below 10000 nM; in test [2] it was not below 10000 nM; in test [3] it was 40 nM; in test [4], 2100 nM; in test [5] it was not below 10000 nM.

For the compound `CC(C)COc1ccc(OC(F)F)cc1Cn1ncc2cc(C(=O)O)ccc21` [Example 56, 1-(5-Difluoromethoxy-2-Isobutoxy-Benzyl)-1H-Indazole-5-Carboxylic Acid], the antagonist equilibrium constant (Kb) in test [1] is 4100 nM; in test [2], not below 10000 nM; in test [3], 24 nM; in test [4], 150 nM; in test [5] it was 8800 nM.

For the compound `CC(C)COc1ccc(Cl)cc1Cn1ncc2cc(C(=O)O)cnc21` [Example 57, 1-(5-Chloro-2-Isobutoxy-Benzyl)-1H-Pyrazolo[3,4-B]Pyridine-5-Carboxylic Acid], the Kb in test [1] is not below 10000 nM; in test [2], not below 10000 nM; in test [3] it was 27 nM; in test [4], 1300 nM; in test [5], not below 10000 nM.

Turning to `CC(C)COc1ccc(OC(F)(F)F)cc1Cn1ncc2cc(C(=O)O)cnc21` [Example 58, 1-(2-Isobutoxy-5-Trifluoromethoxy-Benzyl)-1H-Pyrazolo[3,4-B]Pyridine-5-Carboxylic Acid], the antagonist dissociation constant (Kb) in test [1] is not below 10000 nM; in test [2], not below 10000 nM; in test [3], 30 nM; in test [4] it was 380 nM; in test [5] it was 9800 nM.

Consider `CCC(CC)COc1ccc(Br)cc1Cn1nc(C)c2cc(C(=O)O)cnc21` [Example 59, 1-[5-Bromo-2-(2-Ethyl-Butoxy)-Benzyl]-3-Methyl-1H-Pyrazolo[3,4-B]Pyridine-5-Carboxylic Acid], for which the Kb in test [1] was 540 nM; in test [2], not below 10000 nM; in test [3] it was 280 nM; in test [4], 190 nM; in test [5], 5400 nM.

On to `CCC(CC)COc1ccc(Cl)cc1Cn1nc(C)c2cc(C(=O)O)cnc21` [Example 60, 1-[5-Chloro-2-(2-Ethyl-Butoxy)-Benzyl]-3-Methyl-1H-Pyrazolo[3,4-B]Pyridine-5-Carboxylic Acid], for which the antagonist dissociation constant (Kb) stood at 630 nM in test [1]; 7500 nM in test [2]; 410 nM in test [3]; 150 nM in test [4]; 5100 nM in test [5].

`Cc1nn(Cc2cc(Cl)ccc2OCC(C)C)c2ncc(C(=O)O)cc12` [Example 61, 1-(5-Chloro-2-Isobutoxy-Benzyl)-3-Methyl-1H-Pyrazolo[3,4-B]Pyridine-5-Carboxylic Acid]: the Kb in test [1] was 1750 nM; in test [2], not below 10000 nM; in test [3], 180 nM; in test [4], 760 nM; in test [5] it was not below 10000 nM.

For the compound `CCC(CC)COc1ccc(Cl)cc1Cn1ncc2cc(C(N)=O)ncc21` [Example 62, 1-[5-Chloro-2-(2-Ethyl-Butoxy)-Benzyl]-1H-Pyrazolo[3,4-C]Pyridine-5-Carboxylic Acid Amide], the Kb in test [1], in test [2], in test [3], in test [4] and in test [5] was not below 10000 nM throughout.

As to `CCC(CC)COc1ccc(Cl)cc1Cn1ncc2cc(C(=O)O)ncc21` [Example 63, 1-[5-Chloro-2-(2-Ethyl-Butoxy)-Benzyl]-1H-Pyrazolo[3,4-C]Pyridine-5-Carboxylic Acid], the Kb in test [1] was 5000 nM; in test [2], not below 10000 nM; in test [3], 1200 nM; in test [4], 2500 nM; in test [5], 7400 nM.

In the case of `CCc1nn(Cc2cc(Br)ccc2OCC(C)C)c2ccc(C(=O)O)cc12` [Example 64, 1-(5-Bromo-2-Isobutoxy-Benzyl)-3-Ethyl-1H-Indazole-5-Carboxylic Acid], the antagonist equilibrium constant (Kb) in test [1] came out at 700 nM; in test [2], 3100 nM; in test [3], 5 nM; in test [4] it was 50 nM; in test [5], 2900 nM.

Consider `CCc1nn(Cc2cc(Br)ccc2OCC(CC)CC)c2ccc(C(=O)O)cc12` [Example 65, 1-[5-Bromo-2-(2-Ethyl-Butoxy)-Benzyl]-3-Ethyl-1H-Indazole-5-Carboxylic Acid], for which the Kb in test [1] was 880 nM; in test [2] it was 6500 nM; in test [3] it was 40 nM; in test [4], 55 nM; in test [5] it was 4700 nM.

Source of the values: patent publication US10988474B2, “Compounds acting at multiple prostaglandin receptors giving a general anti-inflammatory response” (ALLERGAN, INC., priority 2011, dated 2021).
